Patent publication US20120238105A1, “FORMULATIONS FOR THE PRODUCTION OF ELECTRONIC DEVICES” (Merck Patent GmbH, priority 2009, published 2012)

Experiment: solubility of matrix compounds for producing devices from solution
Format: physicochemical
Details: compounds dissolved in toluene or chlorobenzene for spin coating of the emission layer (matrix with 5% by weight emitter)
Procedure: Materials according to the invention are used from solution, where they result in simple devices having nevertheless good properties. The production of such components is based on the production of polymeric light-emitting diodes (PLEDs), which has already been described many times in the literature (for example in WO 2004/037887 A2). In the present case, the compounds according to the invention are dissolved in toluene or chlorobenzene. The concentration employed in the examples given here is 20% by weight of the emitter (T-1 or compound 18) and 80% by weight of the matrix materials (compounds 5 to 17). The typical solids content of such solutions is between 16 and 25 g/l if, as here, the typical layer thickness of 80 nm for a device is to be achieved by means of spin coating.
The concentration employed in the examples given here is 5% by weight of the emitter (SEB-095, Merck) and 95% by weight of the matrix materials (compounds 28 and 29). The typical solids content of such solutions is […] if, as here, the typical layer thickness of 50 nm for a device is to be achieved by means of spin coating.

Q: For `c1ccc(-c2cccc(-c3c4ccccc4c(-c4cccc5c4ccc4cc6ccccc6cc45)c4ccccc34)c2)cc1` [Compound 27], which solubility is on record?
A: poor solubility

Q: With `c1ccc(-c2c3ccccc3c(-c3cccc4c3ccc3cc5ccccc5cc34)c3ccccc23)cc1` [Compound 25] as the molecule, how does the solubility read?
A: poor solubility

Q: Which solubility does the source give for `c1ccc(-c2cc(-c3ccccc3)cc(-c3c4ccccc4c(-c4cccc5c4ccc4cc6ccccc6cc45)c4ccccc34)c2)cc1` [Compound 28] here?
A: improved solubility

Q: With `c1ccc(-c2cc(-c3ccccc3)cc(-c3cccc(-c4c5ccccc5c(-c5cccc6c5ccc5cc7ccccc7cc56)c5ccccc45)c3)c2)cc1` [Compound 29] as the molecule, how does the solubility read?
A: improved solubility
